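How tested: cells in 96-well plates exposed to compound for 48 hours at five concentrations. GI50 is the concentration that inhibits growth by half.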 Calls of active or inactive are those of the source. Cut-off read from the data, not from the text of the source: active = GI50 up to about 1.1 µM and inactive = higher.
How the values were obtained:
Assay in all cases: NCI-60 cell line screen, 48 h
[1] = system: CAKI-1
[2] = system: COLO 205
[3] = system: DU-145
[4] = system: HCC 2998
[5] = system: HCT-15
[6] = system: HOP-92
[7] = system: Hs-578T
[8] = system: M14
[9] = system: MDA-MB-435
[10] = system: MOLT-4
[11] = system: NCI-H23
[12] = system: NCI-H522
[13] = system: OVCAR-3
[14] = system: OVCAR-8
[15] = system: PC-3
[16] = system: RXF 393
[17] = system: SK-MEL-5
[18] = system: SK-OV-3
[19] = system: U-251
[20] = system: UACC-62

Compound	GI50 [1]	GI50 [2]	GI50 [3]	GI50 [4]	GI50 [5] [µM]	GI50 [6]	GI50 [7]	GI50 [8]	GI50 [9]	GI50 [10]	GI50 [11]	GI50 [12]	GI50 [13]	GI50 [14]	GI50 [15]	GI50 [16]	GI50 [17]	GI50 [18]	GI50 [19]	GI50 [20]
CC1(C)CC[C@]2(C(=O)O)CC[C@]3(C)[C@H](C(=O)C=C4[C@@]5(C)C=C(C#N)C(=O)C(C)(C)[C@@H]5CC[C@]43C)[C@@H]2C1 [BARDOXOLONE]	0.687 µM (active)	0.215 µM (active)	0.508 µM (active)	< 0.0412 µM (active)	0.113	1.29 µM (inactive)	0.671 µM (active)	0.769 µM (active)	0.537 µM (active)	0.259 µM (active)	0.174 µM (active)	0.923 µM (active)	0.102 µM (active)	0.577 µM (active)	0.311 µM (active)	0.0995 µM (active)	0.258 µM (active)	0.875 µM (active)	0.274 µM (active)	0.2 µM (active)
O=S(=O)(c1ccccc1)n1c2ccc(Br)cc2c2nc3ccccc3nc21	> 100 µM (inactive)	> 100 µM (inactive)	> 100 µM (inactive)	> 100 µM (inactive)	> 100	> 100 µM (inactive)	> 100 µM (inactive)	> 100 µM (inactive)	> 100 µM (inactive)	> 100 µM (inactive)	> 100 µM (inactive)	> 100 µM (inactive)	> 100 µM (inactive)	> 100 µM (inactive)	> 100 µM (inactive)	> 100 µM (inactive)	> 100 µM (inactive)		> 100 µM (inactive)	> 100 µM (inactive)
COC(=O)c1ccccc1C1CN=NC12Cc1ccc(C)cc1C2=O (centres undefined)	84.5 µM (inactive)	60.8 µM (inactive)	> 100 µM (inactive)	64.7 µM (inactive)	56.1	38.9 µM (inactive)	41.5 µM (inactive)	65.2 µM (inactive)	33.3 µM (inactive)	47.2 µM (inactive)	59 µM (inactive)	30.5 µM (inactive)	38.6 µM (inactive)	> 100 µM (inactive)	37.1 µM (inactive)	97.7 µM (inactive)	38.1 µM (inactive)	> 100 µM (inactive)	41.6 µM (inactive)	68.7 µM (inactive)
CC(C)=CCC/C(C)=C/C=C/C(C)=C/C=C/C(C)=C/C=C/C=C(C)/C=C/C=C(C)/C=C/[C@H]1C(C(C)(C)O)CC[C@]1(C)O (some centres undefined)	33.5 µM (inactive)		16.9 µM (inactive)	15.5 µM (inactive)	19.4	12.7 µM (inactive)	22.1 µM (inactive)	28.8 µM (inactive)	23 µM (inactive)	20.7 µM (inactive)	20.2 µM (inactive)	17.3 µM (inactive)	18.8 µM (inactive)	20.2 µM (inactive)	30.3 µM (inactive)	17.3 µM (inactive)	15.5 µM (inactive)	56.2 µM (inactive)	20.7 µM (inactive)	
Cc1nc2c(O)nc3ccccc3c2o1	> 100 µM (inactive)	> 100 µM (inactive)	> 100 µM (inactive)	> 100 µM (inactive)	> 100	> 100 µM (inactive)	> 100 µM (inactive)	> 100 µM (inactive)	> 100 µM (inactive)	> 10 µM (inactive)	> 100 µM (inactive)		> 100 µM (inactive)	> 100 µM (inactive)	> 100 µM (inactive)	> 100 µM (inactive)	> 100 µM (inactive)	> 100 µM (inactive)	> 100 µM (inactive)	> 100 µM (inactive)
CC(C)/C(Cl)=N\OC(NC(=O)P(=O)(c1ccccc1)c1ccccc1)(C(F)(F)F)C(F)(F)F	23.7 µM (inactive)	11.7 µM (inactive)	11.1 µM (inactive)	14.8 µM (inactive)	15.9	2.46 µM (inactive)	23.9 µM (inactive)	4.14 µM (inactive)	16.3 µM (inactive)	8.05 µM (inactive)	2.99 µM (inactive)		4.97 µM (inactive)	13 µM (inactive)	12.6 µM (inactive)	14.6 µM (inactive)	13.8 µM (inactive)	27 µM (inactive)	2.88 µM (inactive)	16 µM (inactive)
N#Cc1nc(C#N)n(S(=O)(=O)c2ccccc2)c1NS(=O)(=O)c1ccccc1	> 37.8 µM (inactive)	> 100 µM (inactive)	> 100 µM (inactive)	> 100 µM (inactive)	> 100	> 100 µM (inactive)	> 100 µM (inactive)	> 100 µM (inactive)	> 100 µM (inactive)	> 100 µM (inactive)	> 100 µM (inactive)	> 100 µM (inactive)	> 100 µM (inactive)	> 100 µM (inactive)	> 100 µM (inactive)	> 100 µM (inactive)	> 100 µM (inactive)	> 100 µM (inactive)	> 100 µM (inactive)	> 100 µM (inactive)
Cc1cccc(/C=N/NC(=S)NC2CCCCC2)n1	43.3 µM (inactive)	8.85 µM (inactive)	29.6 µM (inactive)	20.7 µM (inactive)	5.26	10.1 µM (inactive)	31.1 µM (inactive)	23 µM (inactive)	33.7 µM (inactive)	2.26 µM (inactive)	32.4 µM (inactive)	7.96 µM (inactive)	3.7 µM (inactive)	19.4 µM (inactive)	6.73 µM (inactive)	18.5 µM (inactive)	29.9 µM (inactive)	23.1 µM (inactive)	20.5 µM (inactive)	21.3 µM (inactive)
CCOC(=O)C(NC(=O)OC(C)(C)C)C(=O)OCC	> 100 µM (inactive)	> 100 µM (inactive)	> 100 µM (inactive)	> 100 µM (inactive)	> 100	> 100 µM (inactive)	> 100 µM (inactive)		> 100 µM (inactive)	> 100 µM (inactive)	> 100 µM (inactive)	> 100 µM (inactive)		> 100 µM (inactive)	> 100 µM (inactive)	> 100 µM (inactive)	64.1 µM (inactive)	> 100 µM (inactive)	> 100 µM (inactive)	> 100 µM (inactive)
Cc1ccc(-c2nc(N/N=C/c3ccc(O)cc3)c3ccccc3n2)cc1	10.8 µM (inactive)	23.4 µM (inactive)	21.8 µM (inactive)	14.1 µM (inactive)	16.4	32.4 µM (inactive)	35.7 µM (inactive)	5.02 µM (inactive)	10.8 µM (inactive)	20.5 µM (inactive)	7.31 µM (inactive)	14.2 µM (inactive)	4.29 µM (inactive)	22.9 µM (inactive)	9.06 µM (inactive)	21 µM (inactive)	3.51 µM (inactive)	20.3 µM (inactive)	19.8 µM (inactive)	12.3 µM (inactive)
C=C1[C@H](OC(=O)C(C)C)[C@]23CC4(O)[C@@H]5[C@@]6(C)CCC[C@]57C([C@@H]2C[C@@]1(O)[C@H](O)[C@@H]73)N4C6	> 100 µM (inactive)	> 100 µM (inactive)	> 100 µM (inactive)	27 µM (inactive)	> 100	> 100 µM (inactive)	> 100 µM (inactive)	> 100 µM (inactive)	> 100 µM (inactive)	> 100 µM (inactive)	> 100 µM (inactive)	> 100 µM (inactive)	> 100 µM (inactive)	> 100 µM (inactive)	> 100 µM (inactive)	> 100 µM (inactive)	> 100 µM (inactive)	98.6 µM (inactive)	> 100 µM (inactive)	> 100 µM (inactive)
BrC(Br)=C1C(=C(Br)Br)C(Br)C1Br (centres undefined)	0.132 µM (active)	0.849 µM (active)	0.106 µM (active)	0.142 µM (active)	0.301	1.34 µM (inactive)	2.51 µM (inactive)	0.198 µM (active)	0.927 µM (active)	0.121 µM (active)	0.284 µM (active)	0.139 µM (active)	0.794 µM (active)	0.55 µM (active)	1.62 µM (inactive)	0.226 µM (active)	0.826 µM (active)	3.33 µM (inactive)	0.65 µM (active)	0.429 µM (active)
Cc1cn(CCCCC2=NCCCN2)c(=O)[nH]c1=O	> 15.1 µM (inactive)	> 31.1 µM (inactive)	> 26.6 µM (inactive)	> 26.3 µM (inactive)	> 32.2	3.66 µM (inactive)	> 34.4 µM (inactive)	> 25.2 µM (inactive)	> 26.7 µM (inactive)	> 26.7 µM (inactive)	> 31.2 µM (inactive)	> 30.8 µM (inactive)	> 26.7 µM (inactive)		> 26.7 µM (inactive)	25.8 µM (inactive)	> 28.1 µM (inactive)	> 29.6 µM (inactive)	> 30.5 µM (inactive)	> 42.2 µM (inactive)
Nc1nc(Cl)c(N)c(NCC2(CO)CCCC2)n1	> 100 µM (inactive)		> 100 µM (inactive)	> 100 µM (inactive)	> 100	> 100 µM (inactive)	> 100 µM (inactive)		80 µM (inactive)	74.8 µM (inactive)		> 100 µM (inactive)	62.1 µM (inactive)	> 100 µM (inactive)	> 100 µM (inactive)	78.7 µM (inactive)	30.8 µM (inactive)	10.4 µM (inactive)	> 100 µM (inactive)	1.83 µM (inactive)

From ChEMBL document CHEMBL1201862, “PubChem BioAssay data set” (2004)
